Where two headings read alike, the source gives them in different places.
How the values were obtained:
OXA-48 = OXA-48 (Klebsiella pneumoniae, UniProt Q6XEC0); assay: % inhibition at fixed concentration; type: biochemical; conditions: OXA-48, class D; inhibitor 200 µM; substrate IMI
Procedure: (§1) Selection of an appropriate warhead-bearing reagent is crucial for achieving a successful in situ click chemistry. Thus, we assessed the inhibitory activity of the selected warheads against a pool of different β-lactamases to verify their binding specificity for the target. The affinity (inhibitory ability) of 2-4 against 12 representative β-lactamases from class A, B, C, and D was assessed as the percentage of inhibition at a fixed concentration of 200 µM (Table 1).
(§2) The β-lactamases used in the present study were from a Clinical Biochemistry Laboratory collection (Department of Biotechnological and Applied Clinical Sciences, University of L’Aquila, L’Aquila, Italy). […] The concentration of each enzyme was determined by a Bradford assay.
(§3) The plot v0/vi versus [I] yielded a straight line of slope KM/(KM + S) × Ki.
(§4) For the β-lactamases test at a fixed concentration previously reported in Table 1, the following conditions were applied (Table 3): […]

KPC-2 [1] = target: T1, KPC-2 (Klebsiella pneumoniae, UniProt Q9F663); assay: % inhibition at fixed concentration; type: biochemical
T1 construct: made in house
Procedure: as §1, §2, §3, §4

IMP-1 = target: T2, IMP-1 (Serratia marcescens, UniProt P52699); assay: % inhibition at fixed concentration; type: biochemical
T2 construct: made in house
Procedure: as §1, §2, §3, §4

VIM-1 = target: T3, VIM-1 (Pseudomonas aeruginosa, UniProt A0A0F7KYQ8); assay: % inhibition at fixed concentration; type: biochemical
T3 construct: made in house
Procedure: as §1, §2, §3, §4

CMY-2 = CMY-2 (Klebsiella pneumoniae, UniProt Q48434); assay: % inhibition at fixed concentration; type: biochemical
Procedure: as §1, §2, §3, §4

KPC-53 = KPC-53 (Klebsiella pneumoniae, UniProt Q9F663, DUP166-167/H272Y); assay: % inhibition at fixed concentration; type: biochemical
Procedure: as §1, §2, §3, §4

OXA-24 = OXA-24 (Acinetobacter baumannii, UniProt Q8RLA6); assay: % inhibition at fixed concentration; type: biochemical
Procedure: as §1, §2, §3, §4

CTX-M-15 = target: T4, CTX-M-15 (Escherichia coli, UniProt Q9EXV5); assay: % inhibition at fixed concentration; type: biochemical
T4 construct: made in house
Procedure: as §1, §2, §3, §4

ADC-25 = ADC-25 (Acinetobacter baumannii, UniProt A8QIF8); assay: % inhibition at fixed concentration; type: biochemical
Procedure: as §1, §2, §3, §4

NDM-1 = NDM-1 (Klebsiella pneumoniae, UniProt C7C422); assay: % inhibition at fixed concentration; type: biochemical; design: made in house
Procedure: as §1, §2, §3, §4

AmpC [2] = target: T5, AmpC (Escherichia coli, UniProt P00811); assay: % inhibition at fixed concentration; type: biochemical; design: made in house
Text: Selection of an appropriate warhead-bearing reagent is crucial for achieving a successful in situ click chemistry. Thus, we assessed the inhibitory activity of the selected warheads against a pool of different β-lactamases to verify their binding specificity for the target. […]
as §2, §3, §4

AmpC [3] = target: T5, AmpC; assay: Competitive inhibition assay with nitrocefin, Ki; type: biochemical; design: made in house
Procedure: as §2, §3
Figure 9 Compounds synthesised and their biological evaluation. AC = Amplification coefficient. […] Light blue indicates the compounds from the AmpC screening.

SHV-12 = SHV-12 (Klebsiella pneumoniae, UniProt P0AD64, E235K/G234S/L31Q); assay: % inhibition at fixed concentration; type: biochemical; conditions: SHV-12, class A; inhibitor 200 µM; substrate NCF
KPC-2 [4] = target: T1, KPC-2; assay: Competitive inhibition assay with nitrocefin, Ki; type: biochemical
Procedure: as §2, §3
AC = Amplification coefficient. In the AC column, between brackets reports the regioisomeric ratio observed (1,4- vs. 1,5-) and bold reports the synthesised regioisomer. Light blue indicates the compounds obtained from the KPC-2 screening.

KPC-2 [5] = target: T1, KPC-2; design: method as in PMID 35792385; conditions: ref [58]; cited from earlier work
[6] = tested on: C[C@@H](O)[C@H]1C(=O)N2C(C(=O)O)=C(S[C@@H]3CN[C@H](C(=O)N(C)C)C3)[C@H](C)[C@H]12; assay: purified protein, by the assay type; conditions: other: IMP-1, HEPES 20 mM pH 7.0 + 20 µM Zn
KPC-2 [7] = target: T1, KPC-2; conditions: KPC-2 20 mol%; warhead 3 + alkyne cluster; 37 °C, 24 h
Procedure: Starting from the azido-functionalised boronic acid 3, optimised conditions (see SI Table S2) were applied in combination with the 90-component alkyne library. The reactions were conducted in 0.2 mL microtubes in a 95:5 sodium phosphate 50 mM pH 7.0:DMSO mixture (final volume 100 µL), stirring at 300 rpm at 37 °C for 24 h (Scheme 1).
The experiments were conducted in triplicate, using a reaction mixture containing one equivalent of warhead 3, five equivalents of each alkyne cluster (9 alkynes), and 20 mol% KPC-2 as the catalyst. Product formation was monitored directly from the crude mixture using a hybrid quadrupole orbitrap LC–MS system in the ESI+ or ESI- mode after 24 h. Peak areas of the desired products were compared across three conditions: with KPC-2, without any enzyme, and with bovine serum albumin (BSA). […] The resulting ratio, named as the amplification coefficient (AC), was calculated from the peak area of the product obtained in the presence of KPC-2 vs. the one acquired with the controls.
Binary and multicomponent KTGS. […] The microtube was shaken at 300 rpm at 37 °C for 24 h. Reactions were transferred into a LC–MS vial and directly injected (10 µL) for liquid chromatography–mass spectrometry (LC–MS). Reactions were analysed with an Ultimate 3000 UHPLC coupled to a Q-exactive hybrid quadrupole-orbitrap mass spectrometer via an HESI-II heated electrospray ionisation source. The chromatographic separation was performed injecting a 10 µL sample volume on a Hypersil Gold C18 100 × 2.1 mm, 1.9 µm column (Thermo Fisher Scientific), kept at 30 °C eluting with 0.3 mL/min flow of ultrapure water (A) and methanol (B), both with 0.1% formic acid as mobile phase. […] A data-dependent mass spectrometric data acquisition strategy was used for full MS/DD-MS2. […] An inclusion list was eventually used to target the MS2 spectra acquisition of preferred ion species. Detection was based on calculated [M+H]^+ and [M−H]^− molecular ions with a 5 ppm accuracy tolerance for their respective ion chromatogram extraction. Peak retention time and area of detected target compounds was used for their detection and semi-quantitative evaluation in between reaction batches.
For controls (buffer and BSA), AmpC/KPC-2 is replaced with no enzyme (buffer volume 95 µL) and BSA (stock 100 µM, final concentration 5 µM, buffer volume 90 µL). Hits were identified in each cluster by mass and retention time and compared with both controls (buffer and BSA) and synthetically prepared triazoles obtained in mixtures.

ADC-7 = target: ADC-7; design: method as in PMID 26102369, PMID 34970229, PMID 37358467, PMID 26729491; conditions: ref [17],[19],[35],[36]; cited from earlier work
[8] = tested on: O=C(Cc1cccs1)N[C@@H]1C(=O)N2C(C(=O)O)=C(/C=C/c3ccc([N+](=O)[O-])cc3[N+](=O)[O-])CS[C@H]12; assay: purified protein, by the assay type; conditions: other: CMY-2, NaPi 50 mM pH 7.0

T5 sequence (P00811 20-377): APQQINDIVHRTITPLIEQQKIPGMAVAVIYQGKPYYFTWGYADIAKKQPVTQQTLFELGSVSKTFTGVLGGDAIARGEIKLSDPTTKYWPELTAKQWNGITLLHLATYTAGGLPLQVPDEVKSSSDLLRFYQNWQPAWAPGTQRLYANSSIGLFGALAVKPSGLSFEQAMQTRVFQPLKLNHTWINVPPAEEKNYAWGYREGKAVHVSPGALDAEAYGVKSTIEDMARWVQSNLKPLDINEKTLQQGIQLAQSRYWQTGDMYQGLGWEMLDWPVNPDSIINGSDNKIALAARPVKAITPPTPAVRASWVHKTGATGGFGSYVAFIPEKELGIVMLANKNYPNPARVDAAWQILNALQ
T4 sequence (Q9EXV5 entry or part of it): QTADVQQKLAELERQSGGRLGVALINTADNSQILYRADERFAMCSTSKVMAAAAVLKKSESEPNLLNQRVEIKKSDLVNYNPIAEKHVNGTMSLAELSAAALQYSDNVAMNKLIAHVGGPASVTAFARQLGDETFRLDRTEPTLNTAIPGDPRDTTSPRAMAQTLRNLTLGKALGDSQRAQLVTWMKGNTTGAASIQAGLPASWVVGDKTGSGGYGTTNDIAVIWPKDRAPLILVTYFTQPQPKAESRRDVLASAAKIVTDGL

Compound: [N-]=[N+]=NCc1cccc(B(O)O)c1 [compound 3, (3-(azidomethyl)phenyl)boronic acid]
- inhibition at 200 µM (OXA-48): 2%
- inhibition at 100 µM (KPC-2 [1]): 76%
- inhibition at 200 µM (IMP-1): 11%
- inhibition at 200 µM (VIM-1): 24%
- inhibition at 200 µM (CMY-2): 79%
- inhibition at 200 µM (KPC-53): 65%
- inhibition at 200 µM (OXA-24): 24%
- inhibition at 200 µM (CTX-M-15): 42%
- inhibition at 200 µM (ADC-25): 67%
- inhibition at 200 µM (NDM-1): 20%
- inhibition at 100 µM (AmpC [2]): 100%
- % of inhibition (AmpC [2]; AmpC, class C, inhibitor 100 µM, substrate NCF): completely inhibits
- Ki (AmpC [3]; AmpC, values in nM): 700 nM
- % of inhibition (SHV-12): 38%
- Ki (KPC-2 [4]): 2300 nM
- activity vs. KPC-2 (KPC-2 [5]): sub-µM

Compound: COC(=O)c1cccc(CS(=O)(=O)NCc2cnnn2Cc2cccc(B(O)O)c2)c1 [7a]
- Ki (AmpC [3]; AmpC, values in nM): 170 nM
- Ki (KPC-2 [4]): 4600 nM

Compound: CN(C)c1ccc(-c2cn(Cc3cccc(B(O)O)c3)nn2)cc1 [compound 11]
- Ki (AmpC [3]; AmpC, values in nM): 280 nM
- Ki (KPC-2 [4]): 460 nM

Compound: CCCCC(=O)NCc1cn(Cc2cccc(B(O)O)c2)nn1 [compound 8]
- Ki (AmpC [3]): 1500 nM
- Ki (KPC-2 [4]): 7600 ± 400 nM

Compound: IMP-1 (Serratia marcescens)
- Km [6]: 30 ± 1 µM µM

Compound: [N-]=[N+]=NCc1ccccc1B(O)O [compound 2]
- inhibition at 200 µM (OXA-48): < 1%
- inhibition at 100 µM (KPC-2 [1]): 35%
- inhibition at 200 µM (IMP-1): 12%
- inhibition at 200 µM (VIM-1): 23%
- inhibition at 200 µM (CMY-2): 19%
- inhibition at 200 µM (KPC-53): 54%
- inhibition at 200 µM (OXA-24): 20%
- inhibition at 200 µM (CTX-M-15): 0%
- inhibition at 200 µM (ADC-25): 27%
- inhibition at 200 µM (NDM-1): 23%
- inhibition at 100 µM (AmpC [2]): 57%
- % of inhibition (SHV-12): 14%

Compound: C#CCS(=O)(=O)c1ccccc1 [Al-39]
- AC (amplification coefficient) (KPC-2 [7]): exceeding three

Compound: Nc1nnc(SCC(=O)N[C@@H](Cn2cc(C(=O)O)nn2)B(O)O)s1 [MB076]
- Ki (ADC-7): 210 nM

Compound: C#CCNS(=O)(=O)Cc1cccc(C(=O)OC)c1 [Al-57]
- AC (amplification coefficient) (KPC-2 [7]): exceeding three

Compound: O=C(CCC1CCCCC1)NCc1cn(Cc2cccc(B(O)O)c2)nn1 [compound 13]
- Ki (AmpC [3]; AmpC, values in nM): 800 nM

Compound: CC(C)CC(O)c1cn(Cc2cccc(B(O)O)c2)nn1 (stereo not drawn) [compound 9]
- Ki (AmpC [3]): 11000 nM
- Ki (KPC-2 [4]): 5600 ± 300 nM

Compound: CMY-2 (Klebsiella pneumoniae)
- Km [8]: 8 ± 1 µM µM
